{"source": "ChEMBL document CHEMBL1201861", "about": "“Genomics of Drug Sensitity in Cancer screening data, Wellcome Trust Sanger Institute”", "assay_in_all_cases": "cells", "key": {"D-502MG": {"test_system": "D-502MG", "format": "functional, cell-based, Homo sapiens", "conditions": "Homo sapiens, D-502MG", "description": "SANGER: Inhibition of human D-502MG cell growth in a cell viability assay."}, "DEL": {"test_system": "DEL", "format": "functional, cell-based, Homo sapiens", "conditions": "Homo sapiens, DEL", "description": "SANGER: Inhibition of human DEL cell growth in a cell viability assay."}, "DMS-114": {"test_system": "DMS-114", "format": "functional, cell-based, Homo sapiens", "conditions": "Homo sapiens, DMS-114"}, "DOHH-2": {"test_system": "DOHH-2", "format": "functional, cell-based, Homo sapiens", "conditions": "Homo sapiens, DOHH-2", "description": "SANGER: Inhibition of human DOHH-2 cell growth in a cell viability assay."}, "EM-2": {"test_system": "EM-2", "format": "functional, cell-based, Homo sapiens", "conditions": "Homo sapiens, EM-2", "description": "SANGER: Inhibition of human EM-2 cell growth in a cell viability assay."}, "ES3": {"test_system": "ES3", "format": "functional, cell-based, Homo sapiens", "conditions": "Homo sapiens, ES3", "description": "SANGER: Inhibition of human ES3 cell growth in a cell viability assay."}, "ETK-1": {"test_system": "ETK-1", "format": "functional, cell-based, Homo sapiens", "conditions": "Homo sapiens, ETK-1", "description": "SANGER: Inhibition of human ETK-1 cell growth in a cell viability assay."}, "EW-11": {"test_system": "EW-11", "format": "functional, cell-based, Homo sapiens", "conditions": "Homo sapiens, EW-11", "description": "SANGER: Inhibition of human EW-11 cell growth in a cell viability assay."}, "EW-13": {"test_system": "EW-13", "format": "functional, cell-based, Homo sapiens", "conditions": "Homo sapiens, EW-13", "description": "SANGER: Inhibition of human EW-13 cell growth in a cell viability assay."}, "EW-3": {"test_system": "EW-3", "format": "functional, cell-based, Homo sapiens", "conditions": "Homo sapiens, EW-3", "description": "SANGER: Inhibition of human EW-3 cell growth in a cell viability assay."}, "HCE-T": {"test_system": "HCE-T", "format": "functional, cell-based, Homo sapiens", "conditions": "Homo sapiens, HCE-T", "description": "SANGER: Inhibition of human HCE-T cell growth in a cell viability assay."}, "HH": {"test_system": "HH", "format": "functional, cell-based, Homo sapiens", "conditions": "Homo sapiens, HH", "description": "SANGER: Inhibition of human HH cell growth in a cell viability assay."}, "IST-SL1": {"test_system": "IST-SL1", "format": "functional, cell-based, Homo sapiens", "conditions": "Homo sapiens, IST-SL1", "description": "SANGER: Inhibition of human IST-SL1 cell growth in a cell viability assay."}, "JVM-2": {"test_system": "JVM-2", "format": "functional, cell-based, Homo sapiens", "conditions": "Homo sapiens, JVM-2", "description": "SANGER: Inhibition of human JVM-2 cell growth in a cell viability assay."}, "JVM-3": {"test_system": "JVM-3", "format": "functional, cell-based, Homo sapiens", "conditions": "Homo sapiens, JVM-3", "description": "SANGER: Inhibition of human JVM-3 cell growth in a cell viability assay."}, "K5": {"test_system": "K5", "format": "functional, cell-based, Homo sapiens", "conditions": "Homo sapiens, K5", "description": "SANGER: Inhibition of human K5 cell growth in a cell viability assay."}, "KALS-1": {"test_system": "KALS-1", "format": "functional, cell-based, Homo sapiens", "conditions": "Homo sapiens, KALS-1", "description": "SANGER: Inhibition of human KALS-1 cell growth in a cell viability assay."}, "KARPAS-45": {"test_system": "KARPAS-45", "format": "functional, cell-based, Homo sapiens", "conditions": "Homo sapiens, KARPAS-45", "description": "SANGER: Inhibition of human KARPAS-45 cell growth in a cell viability assay."}, "KGN": {"test_system": "KGN", "format": "functional, cell-based, Homo sapiens", "conditions": "Homo sapiens, KGN", "description": "SANGER: Inhibition of human KGN cell growth in a cell viability assay."}, "KNS-42": {"test_system": "KNS-42", "format": "functional, cell-based, Homo sapiens", "conditions": "Homo sapiens, KNS-42", "description": "SANGER: Inhibition of human KNS-42 cell growth in a cell viability assay."}, "LAMA-84": {"test_system": "LAMA-84", "format": "functional, cell-based, Homo sapiens", "conditions": "Homo sapiens, LAMA-84", "description": "SANGER: Inhibition of human LAMA-84 cell growth in a cell viability assay."}, "LB2518-MEL": {"test_system": "LB2518-MEL", "format": "functional, cell-based, Homo sapiens", "conditions": "Homo sapiens, LB2518-MEL", "description": "SANGER: Inhibition of human LB2518-MEL cell growth in a cell viability assay."}, "LB771-HNC": {"test_system": "LB771-HNC", "format": "functional, cell-based, Homo sapiens", "conditions": "Homo sapiens, LB771-HNC", "description": "SANGER: Inhibition of human LB771-HNC cell growth in a cell viability assay."}, "LB831-BLC": {"test_system": "LB831-BLC", "format": "functional, cell-based, Homo sapiens", "conditions": "Homo sapiens, LB831-BLC", "description": "SANGER: Inhibition of human LB831-BLC cell growth in a cell viability assay."}, "LS-411N": {"test_system": "LS-411N", "format": "functional, cell-based, Homo sapiens", "conditions": "Homo sapiens, LS-411N"}, "LS-513": {"test_system": "LS-513", "format": "functional, cell-based, Homo sapiens", "conditions": "Homo sapiens, LS-513", "description": "SANGER: Inhibition of human LS-513 cell growth in a cell viability assay."}, "MFM-223": {"test_system": "MFM-223", "format": "functional, cell-based, Homo sapiens", "conditions": "Homo sapiens, MFM-223", "description": "SANGER: Inhibition of human MFM-223 cell growth in a cell viability assay."}, "MN-60": {"test_system": "MN-60", "format": "functional, cell-based, Homo sapiens", "conditions": "Homo sapiens, MN-60", "description": "SANGER: Inhibition of human MN-60 cell growth in a cell viability assay."}, "MS-1": {"test_system": "MS-1", "format": "functional, cell-based, Homo sapiens", "conditions": "Homo sapiens, MS-1", "description": "SANGER: Inhibition of human MS-1 cell growth in a cell viability assay."}, "MV4-11": {"test_system": "MV4-11", "format": "functional, cell-based, Homo sapiens, MV-4-11", "conditions": "Homo sapiens, MV4-11", "description": "SANGER: Inhibition of human MV-4-11 cell growth in a cell viability assay."}, "NB17": {"test_system": "NB17", "format": "functional, cell-based, Homo sapiens", "conditions": "Homo sapiens, NB17", "description": "SANGER: Inhibition of human NB17 cell growth in a cell viability assay."}, "NCI-H1355": {"test_system": "NCI-H1355", "format": "functional, cell-based, Homo sapiens", "conditions": "Homo sapiens, NCI-H1355", "description": "SANGER: Inhibition of human NCI-H1355 cell growth in a cell viability assay."}, "NCI-H526": {"test_system": "NCI-H526", "format": "functional, cell-based, Homo sapiens", "conditions": "Homo sapiens, NCI-H526", "description": "SANGER: Inhibition of human NCI-H526 cell growth in a cell viability assay."}, "NMC-G1": {"test_system": "NMC-G1", "format": "functional, cell-based, Homo sapiens", "conditions": "Homo sapiens, NMC-G1", "description": "SANGER: Inhibition of human NMC-G1 cell growth in a cell viability assay."}, "OMC-1": {"test_system": "OMC-1", "format": "functional, cell-based, Homo sapiens", "conditions": "Homo sapiens, OMC-1", "description": "SANGER: Inhibition of human OMC-1 cell growth in a cell viability assay."}, "P30-OHK": {"test_system": "P30-OHK", "format": "functional, cell-based, Homo sapiens", "conditions": "Homo sapiens, P30-OHK", "description": "SANGER: Inhibition of human P30-OHK cell growth in a cell viability assay."}, "RH-1": {"test_system": "RH-1", "format": "functional, cell-based, Homo sapiens", "conditions": "Homo sapiens, RH-1", "description": "SANGER: Inhibition of human RH-1 cell growth in a cell viability assay."}, "RPMI-8226": {"test_system": "RPMI-8226", "format": "functional, cell-based, Homo sapiens", "conditions": "Homo sapiens, RPMI-8226", "description": "SANGER: Inhibition of human RPMI-8226 cell growth in a cell viability assay."}, "SH-4": {"test_system": "SH-4", "format": "functional, cell-based, Homo sapiens", "conditions": "Homo sapiens, SH-4", "description": "SANGER: Inhibition of human SH-4 cell growth in a cell viability assay."}, "SK-N-DZ": {"test_system": "SK-N-DZ", "format": "functional, cell-based, Homo sapiens", "conditions": "Homo sapiens, SK-N-DZ", "description": "SANGER: Inhibition of human SK-N-DZ cell growth in a cell viability assay."}, "SK-NEP-1": {"test_system": "SK-NEP-1", "format": "functional, cell-based, Homo sapiens", "conditions": "Homo sapiens, SK-NEP-1", "description": "SANGER: Inhibition of human SK-NEP-1 cell growth in a cell viability assay."}, "SNU-C2B": {"test_system": "SNU-C2B", "format": "functional, cell-based, Homo sapiens", "conditions": "Homo sapiens, SNU-C2B", "description": "SANGER: Inhibition of human SNU-C2B cell growth in a cell viability assay."}, "ALL-PO": {"test_system": "ALL-PO", "format": "functional, cell-based, Homo sapiens", "conditions": "Homo sapiens, ALL-PO", "description": "SANGER: Inhibition of human ALL-PO cell growth in a cell viability assay."}, "ATN-1": {"test_system": "ATN-1", "format": "functional, cell-based, Homo sapiens", "conditions": "Homo sapiens, ATN-1", "description": "SANGER: Inhibition of human ATN-1 cell growth in a cell viability assay."}, "BV-173": {"test_system": "BV-173", "format": "functional, cell-based, Homo sapiens", "conditions": "Homo sapiens, BV-173", "description": "SANGER: Inhibition of human BV-173 cell growth in a cell viability assay."}, "C2BBe1": {"test_system": "C2BBe1", "format": "functional, cell-based, Homo sapiens", "conditions": "Homo sapiens, C2BBe1", "description": "SANGER: Inhibition of human C2BBe1 cell growth in a cell viability assay."}, "CAS-1": {"test_system": "CAS-1", "format": "functional, cell-based, Homo sapiens", "conditions": "Homo sapiens, CAS-1", "description": "SANGER: Inhibition of human CAS-1 cell growth in a cell viability assay."}}}
{"smiles": "COc1cc(-c2nn([C@H]3CC[C@H](N4CCN(C(C)=O)CC4)CC3)c3ncnc(N)c23)ccc1NC(=O)c1cc2ccccc2n1C", "values": [{"measurement": "IC50", "setting": "D-502MG", "value": "> 5.12", "unit": "µM"}, {"measurement": "IC50", "setting": "DEL", "value": "> 5.12", "unit": "µM"}, {"measurement": "IC50", "setting": "DMS-114", "value": "> 5.12", "unit": "µM"}, {"measurement": "IC50", "setting": "DOHH-2", "value": 0.0391, "unit": "µM"}, {"measurement": "IC50", "setting": "EM-2", "value": 0.337, "unit": "µM"}, {"measurement": "IC50", "setting": "ES3", "value": "> 5.12", "unit": "µM"}, {"measurement": "IC50", "setting": "ETK-1", "value": 0.349, "unit": "µM"}, {"measurement": "IC50", "setting": "EW-11", "value": "> 5.12", "unit": "µM"}, {"measurement": "IC50", "setting": "EW-13", "value": "> 5.12", "unit": "µM"}, {"measurement": "IC50", "setting": "EW-3", "value": "> 5.12", "unit": "µM"}, {"measurement": "IC50", "setting": "HCE-T", "value": "> 5.12", "unit": "µM"}, {"measurement": "IC50", "setting": "HH", "value": "> 5.12", "unit": "µM"}, {"measurement": "IC50", "setting": "IST-SL1", "value": "> 5.12", "unit": "µM"}, {"measurement": "IC50", "setting": "JVM-2", "value": "> 5.12", "unit": "µM"}, {"measurement": "IC50", "setting": "JVM-3", "value": "> 5.12", "unit": "µM"}, {"measurement": "IC50", "setting": "K5", "value": "> 5.12", "unit": "µM"}, {"measurement": "IC50", "setting": "KALS-1", "value": 2.53, "unit": "µM"}, {"measurement": "IC50", "setting": "KARPAS-45", "value": "> 5.12", "unit": "µM"}, {"measurement": "IC50", "setting": "KGN", "value": 0.887, "unit": "µM"}, {"measurement": "IC50", "setting": "KNS-42", "value": "> 5.12", "unit": "µM"}, {"measurement": "IC50", "setting": "LAMA-84", "value": 0.147, "unit": "µM"}, {"measurement": "IC50", "setting": "LB2518-MEL", "value": "> 5.12", "unit": "µM"}, {"measurement": "IC50", "setting": "LB771-HNC", "value": "> 5.12", "unit": "µM"}, {"measurement": "IC50", "setting": "LB831-BLC", "value": 0.593, "unit": "µM"}, {"measurement": "IC50", "setting": "LS-411N", "value": "> 5.12", "unit": "µM"}, {"measurement": "IC50", "setting": "LS-513", "value": "> 5.12", "unit": "µM"}, {"measurement": "IC50", "setting": "MFM-223", "value": "> 5.12", "unit": "µM"}, {"measurement": "IC50", "setting": "MN-60", "value": "> 5.12", "unit": "µM"}, {"measurement": "IC50", "setting": "MS-1", "value": "> 5.12", "unit": "µM"}, {"measurement": "IC50", "setting": "MV4-11", "value": "> 5.12", "unit": "µM"}, {"measurement": "IC50", "setting": "NB17", "value": "> 5.12", "unit": "µM"}, {"measurement": "IC50", "setting": "NCI-H1355", "value": "> 5.12", "unit": "µM"}, {"measurement": "IC50", "setting": "NCI-H526", "value": "> 5.12", "unit": "µM"}, {"measurement": "IC50", "setting": "NMC-G1", "value": 0.573, "unit": "µM"}, {"measurement": "IC50", "setting": "OMC-1", "value": "> 5.12", "unit": "µM"}, {"measurement": "IC50", "setting": "P30-OHK", "value": "> 5.12", "unit": "µM"}, {"measurement": "IC50", "setting": "RH-1", "value": "> 5.12", "unit": "µM"}, {"measurement": "IC50", "setting": "RPMI-8226", "value": "> 5.12", "unit": "µM"}, {"measurement": "IC50", "setting": "SH-4", "value": 0.913, "unit": "µM"}, {"measurement": "IC50", "setting": "SK-N-DZ", "value": "> 5.12", "unit": "µM"}, {"measurement": "IC50", "setting": "SK-NEP-1", "value": "> 5.12", "unit": "µM"}, {"measurement": "IC50", "setting": "SNU-C2B", "value": "> 5.12", "unit": "µM"}, {"measurement": "IC50", "setting": "ALL-PO", "value": "> 5.12", "unit": "µM"}, {"measurement": "IC50", "setting": "ATN-1", "value": "> 5.12", "unit": "µM"}, {"measurement": "IC50", "setting": "BV-173", "value": 0.345, "unit": "µM"}, {"measurement": "IC50", "setting": "C2BBe1", "value": 0.757, "unit": "µM"}, {"measurement": "IC50", "setting": "CAS-1", "value": "> 5.12", "unit": "µM"}]}
